The source of these data is patent US12139470B2, “Trioxolane agents” (The Regents of the University of California, priority 2017, dated 2024).

Data set [1] deals with Plasmodium falciparum: strain W2. As to the kind of experiment: Plasmodium falciparum growth inhibition assay (EC50 determinations). The class given is cell-based. The following applies: Plasmodium falciparum, W2; against P. falciparum, in vitro; read-out: potency against P. falciparum.
Procedure: The growth inhibition assay for P. falciparum was conducted as described previously^29 with minor modifications. […] Following 48 hours of incubation, the cells were fixed by adding 0.1 ml of 2% formaldehyde in phosphate buffered saline, pH=7.4 (PBS). […] Parasitemias were determined from dot plots (forward scatter vs. fluorescence) using [sequence] software (Becton Dickinson). EC50 values for growth inhibition were determined from plots of percentage control parasitemia over inhibitor concentration using GraphPad Prism software.
Data set [2] is described as follows: Dissolution in DMSO (stock solution). In kind it is physicochemical. The procedure:
The way in which the formulations were prepared involved preparing a stock solution of the compound in DMSO, and then performing dilutions from this stock such that the requisite final concentration was obtained after the addition of all the necessary formulation components. Practically speaking, this was accomplished by partitioning a portion of each compound into separate 4 mL vials, and then placing these vials on the lyophilizer to ensure the compounds were completely dry. This led to a vial containing 49.5 mg of the 3′ OZ439 regioisomer, while the other held 51.0 mg of OZ439. […] This entailed adding 309.4 μL of DMSO to the vial with the 3′ OZ439 regioisomer, whereas 318.8 μL of DMSO was added to the vial containing actual OZ439. In the past, an issue has not arisen when doing this. However, this time, a major problem presented itself. The problem was not with the newly developed 3′ regioisomer of OZ439, but with OZ439 itself. After addition of DMSO to the vials, the majority of the 3′ regioisomer dissolved, whereas none of the actual OZ439 did. In an attempt to assist with dissolving the material, the two vials were then placed a water bath set to 42° C. […] The vial was then placed in a bath sonicator for 60 minutes, ultimately to no avail as […] dissolution of the material. […] At this point, the vial was then placed on the Hi-Vac to remove the DMSO. Once dry, the material was partitioned again in an attempt to get the material to dissolve at a lower concentration.
For the second attempt at preparing the necessary formulation for the actual OZ439, the material was partitioned such that when the dilutions were performed, the highest concentration that would be prepared from the stock solution would be the 10 mg/kg doses. As such, the 80, 40, and 30 mg/kg doses were all prepared directly by partitioning the requisite amounts into separate vials and then adding the necessary amounts of the formulation to reach the desired concentration. For the vial that was employed in aliquoting from to prepare the other concentrations, it contained 15.5 mg of OZ439. DMSO (775 μL) was then added to this vial, to yield a final concentration of 20 mg/mL (55 mM). […] Only after allowing the vial to warm in a 55° C. water bath for 30 minutes did the material finally dissolve. At this point, the material was brought back to the bench to aliquot the material en route to preparing the remaining doses. However, upon being removed from the bath, the compound began to crash out as it cooled to room temperature. For this reason, the vial was heated with a heat gun for about 10-15 seconds to get the material to dissolve fully once again. […]

A short description of data set [3]: Dissolution in oral gavage formulation. The class given is physicochemical. The note with it: 10% DMSO, 40% of a 20% solution of 2-hydroxypropyl-cyclodextrin in water, 50% PEG400; 80, 40 and 30 mg/kg doses; sonication. The procedure: As such, we chose to screen the two regioisomers in a head-to-head study against P. berghei infected mice. In order to carry out this experiment, both compounds first needed to be formulated in a manner that would allow for treatment of the mice by oral gavage. […] Returning to the 3′ regioisomer, the actual doses were then successfully prepared according to the following instructions. The necessary amount of DMSO solution was removed from the vial and added to a new vial. For the 80 mg/kg dose, no additional DMSO was needed to be added to the vial. […] Upon adding the aqueous portion to the 80, 40, and 30 mg/kg doses, a white solution formed (resembled more of an emulsion then a heterogeneous solution). The vials were then placed in a bath sonicator in an attempt to redissolve the material. […] However, even after storing the material at −20° C., the compound was not observed to crash out of the formulation again. For the second attempt at preparing the necessary formulation for the actual OZ439, the material was partitioned such that when the dilutions were performed, the highest concentration that would be prepared from the stock solution would be the 10 mg/kg doses. As such, the 80, 40, and 30 mg/kg doses were all prepared directly by partitioning the requisite amounts into separate vials and then adding the necessary amounts of the formulation to reach the desired concentration. […]

For data set [4] the following is noted: cited from earlier work.
Data set [5] can be described thus: Mouse liver microsome assay (half-life, intrinsic clearance). The source says:
A second hypothesis regarding trans-R^A substitution (R^A in Scheme 1) was that the resulting de-symmetrized molecular topology would impact the vivo PK/PD properties of these analogs. […] To explore possible metabolic differences, we evaluated selected analogs with mouse liver microsomes and derived intrinsic clearance (CLint) values (Table 1).

Data set [6] can be described thus: Kinetic solubility in PBS. In kind it is physicochemical. The note with it: kinetic solubility in PBS (pH = 7.4), final DMSO 5%, average of three determinations.
Another data set concerns Plasmodium berghei. As to the kind of experiment: Plasmodium berghei mouse malaria model (Peters test, cures at 30 days). The class given is in vivo. The following applies: po, 720 h, oral gavage, read-out: Mice Cured (%). The source says: The suppressive 4-day “Peters test” ^27 involving P. berghei infected mice provides a convenient and cost effective means to assess the overall in vivo performance of pre-clinical antimalarials. […] Mice were followed for 30 days and judged to have been cured of the infection based on the lack of detectable parasitemia at the end of the study.
Female Swiss Webster Mice (average of 20 g body weight) were infected intraperitoneally with 10^6 Plasmodium berghei-infected erythrocytes collected from a previously infected mouse. […] There were five mice in each test arm. Infections were monitored by daily microscopic evaluation of Giemsa-stained blood smears starting on day seven. Parasitemia were determined by counting the number of infected and uninfected erythrocytes. Body weight was measured over the course of the treatment. […] Animal survival and morbidity were closely monitored for up to 30 days post-infection when the experiment was terminated. In some cases survival is expressed as a PD100 or PD50, the dose that produces respectively 100% or 50% cures in treated animals at 30 days post infection.

For data set [7], the system named is clinical K13-mutant strain. The note with it: pulsed exposure; cited from earlier work.
The test system of data set [8] is K13 revertant strain bearing the wild type K13 allele. The following applies: pulsed exposure; cited from earlier work.
The test system of the next data set is PC-3 xenograft. Nature of the data set: PET imaging of PC-3 xenograft mouse. In kind it is in vivo. The following applies: tail vein injection. From the text: Compounds 1 and specific examples B9[^18F] and B20[^18F] above are PET imaging reagent with applications in cancer, infectious disease, and inflammation. […] Additional, more quantitative, biodistribution data (e.g., biodistribution data for probes B9 and B20) is included in FIGS. 5-8. […] The imaging reagents above provides a new paradigm for imaging diverse cancer types based on metabolic changes in iron metabolism in tumors and other aspects of tumor biology (hypoxia, necrosis, macrophage infiltration). Imaging primary tumors and metastases and other therapeutic conditions involving aberrant production of labile Fe(II) such as inflammation and infection.

Setting [9] is: 160 mg/mL (341 mM) in DMSO, water bath 42° C., then 55° C. and sonication for OZ439.

The structures appear in SMILES notation. ≈ marks a conversion by molar mass, not a printed value. Where two headings read alike, the source gives them in different places.

As for `c1cc([C@H]2CC[C@]3(CC2)OO[C@]2(O3)C3CC4CC(C3)CC2C4)ccc1OCCN1CCOCC1` [OZ439, artefenomel, reference compound], the EC50 in [1] worked out at 7.9 ± 0.2 nM. The “dissolution in DMSO” value is “did not readily dissolve” in data set [2] (20 mg/mL (55 mM) in DMSO) and “did not dissolve” in data set [2] (setting [9]). For the same compound, the dissolution in formulation entry in [3] is given as “unsuccessful in getting the material to dissolve”.

Broadly, the half-life is the time in which the quantity being followed falls by half. Regarding `C[C@H]1[C@@H](O)O[C@@H]2O[C@@]3(C)CC[C@H]4[C@H](C)CC[C@@H]1[C@@]24OO3` [DHA, dihydroartemisinin], in data set [4] (clinical setting), the half-life was about 1 h.

The Solubility is the concentration that dissolves in the medium under given conditions. Low values mean a poorly soluble substance, high ones a readily soluble substance. Consider `CC(C)(N)CNC(=O)C[C@H]1CC[C@]2(CC1)OO[C@]1(O2)C2CC3CC(C2)CC1C3` [2a, arterolane, reference compound], for which, in data set [5] (half-life when incubated with mouse liver microsomes), the “T1/2” value came out at 2.13 h. The “T1/2 (min) No NADPH” value in data set [5] (mouse liver microsomes, no NADPH) is “stable”. In [5] (mouse, microsomes), the CLint is 5.4 μL/min/mg of protein. Further, the “Solubility” value in [6] was found to be 433 µM (≈ 170 µg/mL). Further, the responders at 13.6 mg/kg/day in the data set on Plasmodium berghei (Table 2, tosylate salt, 13.6 mg/kg/day, once a day for four days, no parasitemia at 30 days) stood at 100%. In addition, in the data set on Plasmodium berghei (Table 3, free base, 1 mg/kg/day, four daily doses), the responders at 1 mg/kg/day was 0%. Also, the responders at 4 mg/kg/day in the data set with Plasmodium berghei (Table 3, free base, 4 mg/kg/day, four daily doses) came out at 80%; with Plasmodium berghei (Table 4, 4 mg/kg/day, once a day for four days) it was 20%. Besides, the responders at 6 mg/kg/day in the data set on Plasmodium berghei (Table 3, free base, 6 mg/kg/day, four daily doses) worked out at 100%; with Plasmodium berghei (Table 4, 6 mg/kg/day, once a day for four days) it was 80%. In the data set on Plasmodium berghei (Table 3, free base, 10 mg/kg/day, four daily doses), the responders at 10 mg/kg/day was found to be 100%. Also, the “time to reduce early ring viability by 50% (t50)” value is on record as about 3 h in data set [7] and about 1 h in data set [8]. Besides, the half-life in data set [4] (human, in vivo) was 2 to 3 h.

Turning to `O=C(NCCCNC(=O)C12CC3CC(C1)[C@]1(OO[C@]4(CC[C@@H](c5ccc(OCCN6CCOCC6)cc5)CC4)O1)C(C3)C2)c1ccc(F)cc1` [B9, N-(3-(4-fluorobenzamido)propyl)-4″-(4-(2-morpholinoethoxy)phenyl)dispiro[adamantane-2,3′-[1,2,4]trioxolane-5′,1″-cyclohexane]-5-carboxamide], in the data set on PC-3 xenograft, the PET distribution result is on record as “accumulation in the small intestine”.

Take `c1cc([C@@H]2CCC[C@]3(C2)OOC2(O3)C3CC4CC(C3)CC2C4)ccc1OCCN1CCOCC1` (stereo in doubt) [A5, 4-(2-(4-(dispiro[adamantane-2,3′-[1,2,4]trioxolane-5′,1″-cyclohexan]-3″-yl)phenoxy)ethyl)morpholine]: the EC50 in data set [1] stood at 19.5 ± 1.6 nM. For the same compound, the “dissolution in DMSO” value in data set [2] (setting [9]) is on record as “dissolved much more rapidly in DMSO than did OZ439”; in data set [2] (160 mg/mL (341 mM) in DMSO, water bath 42° C., then 55° C. and sonication for OZ439, listed as 3′ regioisomer of OZ439), “completely dissolved”. Also, the dissolution in formulation entry in [3] was “completely dissolved”.

Regarding `c1cc([C@H]2CC[C@]3(CC2)OO[C@]2(O3)C3CC4CC(C3)CC2C4)ccc1OCCN1CCOCC1` [3Z, artefenomel], the “time to reduce early ring viability by 50% (t50)” value in data set [7] is listed as about 5 h; in data set [8], about 2 h.
